Results on one molecule are retold here after PMC7955127, “Preclinical small molecule WEHI-7326 overcomes drug resistance and elicits response in patient-derived xenograft models of human treatment-refractory tumors” (Cell Death & Disease, 2021).

For one data set, the system named is MDA-MB-231. Description: Cell growth inhibition assay, MDA-MB-231. It is filed as cell-based. To be noted: Homo sapiens; MDA-MB-231, breast carcinoma; 72 h viability assay, CellTiterGlo; mean of 3 ± SEM; read-out: IC50 (inhibition of cellular proliferation). As to the method:
(§1) Cells were plated at a density of between 500 to 5000 cells per well for adherent cell lines depending on doubling time, and 15,000 cells per well for lymphoblastic leukemia cell lines, in a 96-well plate in 200 μl of growth media. Plates were incubated overnight at 37 °C before adding the inhibitors. Inhibitors were serially diluted from the stock solutions in complete medium and added to the cells. Incubation in the presence of inhibitors was continued for 72 days. Cell viability was assessed by the AlamarBlue (Invitrogen) or CellTiterBlue/Glo (Promega) method according to manufacturer’s instructions. The curve fits and IC50 values were generated in PRISM (GraphPad, San Diego, CA).

For another data set, the system named is PC3. The data set can be described thus: Cell growth inhibition assay, PC3. It is filed as cell-based. The note with it: Homo sapiens, PC-3; PC3, prostate carcinoma; 72 h viability assay, CellTiterGlo; mean of 3 ± SEM; read-out: IC50 (inhibition of cellular proliferation). On the procedure: as §1
A further data set concerns CEM dEpoB30. The data set can be described thus: Cell growth inhibition assay, CEM dEpoB30. It is filed as cell-based. To be noted: Homo sapiens; CEM dEpoB30, leukemia (taxane resistant, β-tubulin mutation); 72 h, Alamar Blue; mean of 3 ± SEM; read-out: IC50 (inhibition of cellular proliferation). On the procedure:
as §1, with “Incubation in the presence of inhibitors was continued for 72 days.” left out
(§2) Parental human lymphoblastic leukemia cells (CEM) and their drug resistant derivatives (dEpoB30 and dEpoB300) were cultured in the presence of increasing amounts of WEHI-7326, paclitaxel or epothilone B. Cell survival was determined as described in Experimental Procedures. Shown are mean of 3 experiments +/- SEM. Dose response curves were fitted in PRISM using non-linear regression (4 parameter logistic) to calculate IC50 values.
On the technique in general: Resazurin is reduced to fluorescent resorufin, in cell work by metabolically active cells.

A further data set concerns porcine tubulin. The data set can be described thus: Tubulin in vitro polymerization assay (fluorescence-based, BK011P). The class given is biochemical. The note with it: purified tubulin. As to the method:
A commercial fluorescence-based tubulin polymerization assay (Cytoskeleton, Denver, CO; Cat. # BK011P) was used as per manufacturer’s instructions for detection of tubulin polymerization inhibitors. Briefly, porcine tubulin (3 mg/ml tubulin in 80 mM PIPES pH 7.0, 0.5 mM EGTA, 2 mM MgCl2, 1 mM GTP and 10% glycerol) was incubated at 37 °C with either vehicle control (DMSO), with Paclitaxel or antimitotic compound. Each condition was tested in duplicate. Polymerization was measured over time by excitation at 360 nm and emission at 420 nm in a temperature controlled 96-well plate fluorimeter (Envision 2105, Perkin-Elmer, Waltham, MS) equipped with filters for excitation at 340–360 nm and emission at 420–450 nm.

Another data set deals with CEM dEpoB300. The data set can be described thus: Cell growth inhibition assay, CEM dEpoB300. The note with it: Homo sapiens; CEM dEpoB300, leukemia (taxane resistant, β-tubulin mutation); 72 h, Alamar Blue; mean of 3 ± SEM; read-out: IC50 (inhibition of cellular proliferation). It is filed as cell-based. On the procedure:
as §1, §2

The subject of data set [1] is PC3 (human prostate carcinoma) xenograft. Description: PC3 tumor xenograft in nude mice. The class given is in vivo, Balb/c nude mice. To be noted: male nude mice, day 17, biweekly i.v. On the procedure:
LoVo (4 × 10^6), PC3 (3 × 10^6) or MDA-MB-231 LNA DRE (10^6) cells were collected by trypsination and injected with 50 μl 1:1 PBS:Matrigel (v/v) subcutaneously on the right flank of 18 female (LoVo), 40 male (PC3) or into 4th mammary fat pad of 40 female (MDA231) Balb/c nude mice. Tumor growth was monitored and average tumor size at commencement of dosing was 100 mm^3. Mice were randomized into 3 arms of each 5 (LoVo), 10 (PC3) or 12 (MDA23) mice respectively and treatment with vehicle (saline), WEHI-7326 (biweekly) or docetaxel (weekly) was administered via tail vein injection. Tumor volumes were measured at least twice weekly with calipers and the experiments were terminated when tumors in the control group started exceeding 1500 mm^3. For LoVo, both vehicle and 25 mg/kg WEHI-7326 groups were harvested 24 h, but 20 mg/kg WEHI-7326 group harvested 1 h post final dose. For PC3, docetaxel group was not harvested in an attempt to grow out resistant tumors.

The subject of a further data set is 322 T TNBC PDX. The data set can be described thus: TNBC PDX model 322T. It is filed as in vivo, NOD-SCID-IL2Rγc–/– mice. On the procedure:
Cohorts of about 30 female mice were seeded with thawed single cell suspensions of early passage human breast tumors (passage 2 or 3). Briefly, 150,000–250,000 cells were resuspended in 10 µl of transplantation buffer (50% fetal calf serum, 10% of a 0.04% trypan blue solution and 40% PBS) and growth-factor-reduced Matrigel [BD] at a ratio of 3:1, and injected into the cleared mammary fat pads of 3- or 4-week-old NOD-SCID-IL2Rγc–/– female mice. Mice were monitored for tumor development three times weekly and tumor size measured using digital Vernier calipers. Tumor volume was estimated by measuring the minimum and maximum tumor diameters using the formula: (minimum diameter)^2 x (maximum diameter)/2. Once tumors arose, mice were randomized into treatment arms. Treatment was initiated when the tumor volume reached 80–120 mm^3. Randomization and tumor measurements were managed using the Study Director software (v 3.0, studylog). Mice were sacrificed at the first measurement where tumor volume exceeded 600 mm^3, or if their health deteriorated for reasons other than disease progression or drug toxicity (censored event).
Mice were treated with either docetaxel (10 mg/kg; i.p.; once), cisplatin (4 mg/kg; i.p.; once) or WEHI-7326 (20 mg/kg; twice a week (Monday and Thursday); i.v.). Vehicle treated mice were administered with the vehicle for WEHI-7326. Docetaxel was resuspended at 2 mg/ml in PBS:Tween-80:ethanol = 90:5:5 (v/v/v). WEHI-7326 was resuspended at 2 mg/ml in saline.

For the molecule `COc1ccc(CNc2nc(NCc3ccc(CN)cc3)nc(NN3CC(=O)NC3=O)n2)cc1` [WEHI-7326], the IC50 in the data set on MDA-MB-231 came out at 24.4 ± 3.1 nM; with PC3, 48.9 ± 11.1 nM; in the data set on CEM dEpoB30, 1.67 ± 0.04 nM; in the data set with CEM dEpoB300, 6.51 ± 0.08 nM. For the same molecule, the “Effect on in vitro tubulin polymerization” value with porcine tubulin (50 μM) was “markedly slowed tubulin polymerization”. The “Effect on in vitro tubulin polymerization rates” value in the data set on porcine tubulin (concentrations up to 15 μM, vs vehicle) is recorded as “did not affect”. Also, the “Tumor growth inhibition (TGI)” value in data set [1] was ~ 75%. In addition, in the data set with 322 T TNBC PDX (322 T PDX mice, 20 mg/kg i.v. twice a week, n = 10), the “Adverse effects in treatment arm” value was 1 sick, 1 found dead. In addition, the Survival time with 322 T TNBC PDX (322 T PDX, docetaxel 10 mg/kg i.p. once, WEHI-7326 20 mg/kg i.v. biweekly) is given as 18 days.
